Data published in patent US6503759B1, “Complex combinatorial chemical libraries encoded with tags” (The Trustees of Columbia University in the City of New York, priority 1992, dated 2003).

Test system: anti-C-myc peptide monoclonal antibody 9E10
Test: bead staining test for binding to anti-C-myc monoclonal antibody 9E10
Settings: bead-bound peptides of the 117,649 peptide library; 1:200 dilution of 9E10 ascites fluid; alkaline phosphatase-coupled goat antimouse IgG colour detection; sequence read from tags
Experimental: The anti-C-myc peptide monoclonal antibody 9E10 was prepared from ascites fluid as described in Evans et al., Mol. Cell Biol., 5, 3610-3616 (1985) and Munro and Pelham, Cell, 48, 899-907 (1987). To test beads for binding to 9E10, beads were incubated in TBST [20 mM Tris-HCl (pH 7.5), 500 mM NaCl and 0.05% Tween-20] containing 1% bovine serum albumin (BSA) to block non-specific protein binding sites. The beads were then centrifuged, resuspended in a 1:200 dilution of 9E10 ascites fluid in TBST+1% BSA and incubated overnight at 4° C. Beads were subsequently washed three times in TBST and incubated for 90 min. at room temperature in alkaline phosphatase-coupled goat antimouse IgG antibodies (Bio-Rad Laboratories), diluted 1:3000 in TBST+1% BSA. After washing the beads twice in TBST and once in phosphatase buffer (100 mM Tris-HCl, pH 9.5, 100 mM NaCl and 5 mM MgCl2), the beads were incubated 1 hr at room temperature in phosphatase buffer containing one one-hundredth part each of AP Color Reagents A & B (Bio-Rad Laboratories). To stop the reaction, the beads were washed twice in 20 mM sodium EDTA, pH 7.4. Solution phase affinities between 9E10 and various peptides were determined by a modification of the competitive ELISA assay described by Harlow et al., Antibodies: a Laboratory Manual, 570-573, Cold Spring Harbor Press, Cold Spring Harbor, N.Y.

beads stained on exposure to the anti-C-myc monoclonal antibody: stained
Sequence: EQKLISEEDL
